Measured values from publication PMC12155096 (International Journal of Molecular Sciences, 2025).
pIC50: −log10 of the molar value. Structures can show the parent of a compound that is named as a salt. Where two headings read alike, the source gives them in different places.

Experiments:
human CYP1A2 [1] = target: T1, human CYP1A2 (Homo sapiens, UniProt P05177); experiment: biochemical
T1 sequence (P05177 1-516): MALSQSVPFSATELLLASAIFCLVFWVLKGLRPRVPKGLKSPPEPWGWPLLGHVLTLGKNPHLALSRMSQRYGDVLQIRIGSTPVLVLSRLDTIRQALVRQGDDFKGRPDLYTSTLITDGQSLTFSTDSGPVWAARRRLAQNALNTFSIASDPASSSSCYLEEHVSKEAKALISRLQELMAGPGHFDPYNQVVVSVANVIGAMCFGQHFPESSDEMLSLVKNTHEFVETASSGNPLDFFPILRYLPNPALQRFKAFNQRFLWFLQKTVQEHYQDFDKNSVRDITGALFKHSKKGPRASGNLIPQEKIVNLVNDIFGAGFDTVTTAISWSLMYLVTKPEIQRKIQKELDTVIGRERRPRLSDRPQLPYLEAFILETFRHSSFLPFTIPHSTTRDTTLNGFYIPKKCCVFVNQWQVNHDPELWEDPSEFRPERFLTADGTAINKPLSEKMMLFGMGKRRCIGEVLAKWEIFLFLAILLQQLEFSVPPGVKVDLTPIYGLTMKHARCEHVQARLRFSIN

human CYP2C19 [2] = target: T2, human CYP2C19 (Homo sapiens, UniProt P33261); experiment: biochemical
T2 sequence (P33261 whole entry): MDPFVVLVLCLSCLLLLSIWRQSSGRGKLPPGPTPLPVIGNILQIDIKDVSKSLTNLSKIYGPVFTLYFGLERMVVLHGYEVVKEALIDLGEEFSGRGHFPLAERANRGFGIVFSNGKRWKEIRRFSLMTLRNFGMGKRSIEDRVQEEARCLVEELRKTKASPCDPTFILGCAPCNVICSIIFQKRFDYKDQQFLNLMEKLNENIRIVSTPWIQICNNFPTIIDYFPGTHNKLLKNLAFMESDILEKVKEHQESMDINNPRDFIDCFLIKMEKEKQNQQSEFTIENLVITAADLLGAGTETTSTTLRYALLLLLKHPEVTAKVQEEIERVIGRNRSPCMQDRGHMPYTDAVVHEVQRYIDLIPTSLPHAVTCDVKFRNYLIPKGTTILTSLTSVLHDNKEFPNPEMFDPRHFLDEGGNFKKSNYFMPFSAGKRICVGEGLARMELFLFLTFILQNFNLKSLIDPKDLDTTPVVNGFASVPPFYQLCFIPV

CYP3A4 [3] = target: T3, CYP3A4 (Homo sapiens, UniProt P08684)
T3 sequence (P08684 whole entry): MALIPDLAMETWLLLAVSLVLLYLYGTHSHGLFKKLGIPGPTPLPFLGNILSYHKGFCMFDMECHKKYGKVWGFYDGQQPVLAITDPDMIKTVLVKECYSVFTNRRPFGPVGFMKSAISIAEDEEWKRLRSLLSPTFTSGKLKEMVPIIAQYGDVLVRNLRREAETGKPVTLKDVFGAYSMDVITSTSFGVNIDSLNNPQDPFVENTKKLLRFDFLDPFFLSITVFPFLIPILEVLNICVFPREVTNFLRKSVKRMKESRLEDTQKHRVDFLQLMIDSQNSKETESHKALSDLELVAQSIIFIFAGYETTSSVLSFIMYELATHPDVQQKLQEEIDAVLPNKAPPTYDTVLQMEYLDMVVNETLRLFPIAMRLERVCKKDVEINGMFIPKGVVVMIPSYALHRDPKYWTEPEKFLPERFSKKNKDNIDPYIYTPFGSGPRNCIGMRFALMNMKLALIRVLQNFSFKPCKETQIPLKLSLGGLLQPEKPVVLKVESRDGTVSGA

human CYP1A2 [4] = target: T1, human CYP1A2; conditions: human
CYP3A4 [5] = target: T3, CYP3A4; experiment: biochemical; conditions: for pIC50: CYP3A4 IC50 (half-maximal inhibitory concentration)
human CYP2D6 [6] = target: T4, human CYP2D6 (Homo sapiens, UniProt P10635); conditions: human
T4 sequence (P10635 whole entry): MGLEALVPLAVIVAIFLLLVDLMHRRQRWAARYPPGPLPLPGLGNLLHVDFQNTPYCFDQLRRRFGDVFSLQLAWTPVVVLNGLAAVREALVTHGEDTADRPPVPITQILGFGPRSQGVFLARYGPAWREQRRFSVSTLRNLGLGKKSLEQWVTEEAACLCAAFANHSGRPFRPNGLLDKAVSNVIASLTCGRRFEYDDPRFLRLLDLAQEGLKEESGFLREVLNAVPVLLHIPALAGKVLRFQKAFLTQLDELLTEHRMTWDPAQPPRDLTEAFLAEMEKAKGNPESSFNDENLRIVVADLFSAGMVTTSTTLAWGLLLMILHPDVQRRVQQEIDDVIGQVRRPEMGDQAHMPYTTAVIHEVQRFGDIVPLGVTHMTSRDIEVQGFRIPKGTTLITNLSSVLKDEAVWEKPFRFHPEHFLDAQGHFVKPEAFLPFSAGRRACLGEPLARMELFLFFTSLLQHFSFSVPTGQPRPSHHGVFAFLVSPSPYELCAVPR

human CYP2C19 [7] = target: T2, human CYP2C19; conditions: human
human CYP2C9 [8] = target: T5, human CYP2C9 (Homo sapiens, UniProt P11712); experiment: biochemical
T5 sequence (P11712 whole entry): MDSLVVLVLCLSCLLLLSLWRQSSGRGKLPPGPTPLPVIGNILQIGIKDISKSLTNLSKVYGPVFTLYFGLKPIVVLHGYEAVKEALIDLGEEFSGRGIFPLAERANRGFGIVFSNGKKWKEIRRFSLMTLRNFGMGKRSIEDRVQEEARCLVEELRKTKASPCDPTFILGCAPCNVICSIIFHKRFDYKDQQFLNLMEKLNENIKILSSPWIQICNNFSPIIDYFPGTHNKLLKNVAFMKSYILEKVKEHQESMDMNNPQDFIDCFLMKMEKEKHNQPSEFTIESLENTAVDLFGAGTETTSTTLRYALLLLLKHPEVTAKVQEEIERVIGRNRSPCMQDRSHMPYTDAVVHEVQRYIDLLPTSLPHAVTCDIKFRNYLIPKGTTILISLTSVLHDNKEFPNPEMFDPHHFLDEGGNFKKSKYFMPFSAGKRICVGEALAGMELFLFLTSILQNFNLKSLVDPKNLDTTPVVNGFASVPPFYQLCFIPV

human CYP2C9 [9] = target: T5, human CYP2C9; conditions: for CYP2C9 Efficacy (in parenthesis): human
[10] = target: Photinus pyralis (firefly) luciferase (Photinus pyralis, UniProt P08659); experiment: biochemical; format: biochemical
Photinus pyralis (firefly) luciferase, sequence (P08659 whole entry): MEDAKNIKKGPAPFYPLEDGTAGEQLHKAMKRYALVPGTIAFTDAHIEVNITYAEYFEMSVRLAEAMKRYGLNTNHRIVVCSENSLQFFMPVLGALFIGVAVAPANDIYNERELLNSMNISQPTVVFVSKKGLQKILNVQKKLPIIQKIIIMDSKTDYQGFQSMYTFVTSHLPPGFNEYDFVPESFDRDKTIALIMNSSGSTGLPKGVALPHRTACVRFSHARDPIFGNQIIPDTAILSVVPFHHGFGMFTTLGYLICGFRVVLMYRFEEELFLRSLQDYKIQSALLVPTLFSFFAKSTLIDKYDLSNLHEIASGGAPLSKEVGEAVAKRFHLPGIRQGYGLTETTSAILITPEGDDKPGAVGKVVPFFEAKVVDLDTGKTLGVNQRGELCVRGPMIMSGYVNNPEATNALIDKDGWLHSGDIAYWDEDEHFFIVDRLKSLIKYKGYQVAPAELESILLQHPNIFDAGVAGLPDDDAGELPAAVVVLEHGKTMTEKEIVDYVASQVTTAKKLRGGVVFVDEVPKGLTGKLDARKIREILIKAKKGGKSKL

human CYP2D6 [11] = target: T4, human CYP2D6; experiment: biochemical
[12] = CYP1A2 IC50 (half-maximal inhibitory concentration)
[13] = CYP2C19 IC50 (half-maximal inhibitory concentration)
[14] = CYP2C9 IC50 (half-maximal inhibitory concentration)
[15] = CYP2D6 IC50 (half-maximal inhibitory concentration)

SMILES | pIC50 (human CYP1A2 [1]; [12]) | pIC50 (human CYP2C19 [2]; [13]) | CYP3A4 Efficacy (in parenthesis) (CYP3A4 [3]) | CYP1A2 Efficacy (in parenthesis) (human CYP1A2 [4]) | pIC50 (CYP3A4 [5]) | CYP2D6 Efficacy (in parenthesis) (human CYP2D6 [6]) | CYP2C19 Efficacy (in parenthesis) (human CYP2C19 [7]) | pIC50 (human CYP2C9 [8]; [14]) | CYP2C9 Efficacy (in parenthesis) (human CYP2C9 [9]) | Luciferase IC50 (half-maximal inhibitory concentration) [10] | pIC50 (human CYP2D6 [11]; [15]) | other results
COc1c2ccoc2cc2oc(=O)ccc12 [5-Methoxypsoralen] | 6.55 | 4.99 | 9.16 ± 1.5 (-71 ± 2) % | 0.28 ± 0.03 (-96 ± 3) % | 5.04 | 0.1 ± 0.02 (11 ± 2) % | 10.35 ± 3.33 (-151 ± 18) % | 5.61 | 2.43 ± 0.16 (-105 ± 2) % | Inactive | 7.00 | 
CCN(CCCc1ccccc1)CCCc1ccccc1 [Alverine citrate] |  |  |  |  |  |  |  |  |  |  |  | AC50 (human CYP1A2 [1]; CYP1A2 AC50 (half-maximal activity concentration)): 9.92 µM; pIC50 (human CYP1A2 [1]; CYP1A2 IC50): 5.00; AC50 (human CYP2C19 [2]; CYP2C19 AC50 (half-maximal activity concentration)): 7.04 µM; pIC50 (human CYP2C19 [2]; CYP2C19 IC50): 5.15; CYP3A4 IC50 (CYP3A4 [3]): 14.43 ± 1.84 (65 ± 11) µM; AC50 (CYP3A4 [5]; CYP3A4 AC50 (half-maximal activity concentration)): 14.4 µM; CYP2C9 IC50 (human CYP2C9 [9]): Inactive; Luciferase IC50 [10]: Inactive; AC50 (human CYP2D6 [11]; CYP2D6 AC50 (half-maximal activity concentration)): 0.87 µM; pIC50 (human CYP2D6 [11]; CYP2D6 IC50): 6.06
Clc1ccc(C2(Cn3cncn3)OCCO2)c(Cl)c1 [Azaconazole] | 4.48 | 5.67 | 0.48 ± 0.03 (-62 ± 7) % | 33.14 ± 4.22 (-89 ± 9) % | 6.32 | 65.83 ± 4.46 (-77 ± 14) % | 2.14 ± 0.96 (-148 ± 8) % | 4.81 | 15.38 ± 2.12 (-103 ± 8) % | Inactive | 4.18 | 
CCOP(=S)(OCC)SCn1nnc2ccccc2c1=O [Azinphos-ethyl] | 4.54 | 6.49 | 1.87 ± 0.34 (-77 ± 3) % | 28.65 ± 6 (-88 ± 5) % | 5.73 | 35.57 ± 0 (-87 ± 6) % | 0.32 ± 0.06 (-141 ± 5) % |  | 0.57 ± 0.11 (-97 ± 0) % | Inactive |  | pIC50 (human CYP2C9 [8]): 6.24; pIC50 (human CYP2D6 [11]): 4.45
C=CCOC(=O)C(C)(C)OC(=O)c1cc(-n2c(=O)cc(C(F)(F)F)n(C)c2=O)ccc1Cl [Butafenacil] | 4.46 | 4.30 | 0.51 ± 0.14 (-90 ± 4) % | 35.06 ± 4.03 (-48 ± 4) % | 6.29 | 26.96 ± 4.59 (-70 ± 7) % | 50.02 ± 19.28 (-89 ± 23) % | 4.63 | 23.68 ± 7.01 (-109 ± 17) % | Inactive | 4.57 | 
O=S(=O)(Oc1ccc(Cl)cc1)c1ccc(Cl)cc1 [Chlorfenson] | 5.49 | 6.85 | 6.8 ± 1.64 (41 ± 6) % | 3.21 ± 1.48 (-95 ± 14) % | 5.17 | 21.56 ± 9.06 (-95 ± 15) % | 0.14 ± 0.02 (-95 ± 43) % | 4.73 | 18.81 ± 7.04 (-92 ± 16) % | Inactive | 4.67 | 
N#Cc1c(Cl)c(Cl)c(Cl)c(C#N)c1Cl [Chlorothalonil] | 5.99 | 4.42 | 1.11 ± 0.13 (-78 ± 2) % | 1.03 ± 0.19 (-97 ± 4) % | 5.95 | 34.91 ± 0 (-58 ± 3) % | 38.42 ± 34.42 (-114 ± 10) % | 5.18 | 6.61 ± 1.87 (-85 ± 10) % | Inactive | 4.46 | 
CC(C1CC1)C(O)(Cn1cncn1)c1ccc(Cl)cc1 (stereo not drawn) [Cyproconazole] | 4.52 | 6.52 | 0.97 ± 0.57 (-70 ± 7) % | 30.37 ± 9.95 (-33 ± 2) % | 6.01 | 38.25 ± 2.49 (-72 ± 6) % | 0.3 ± 0.07 (-141 ± 28) % | 6.89 | 0.13 ± 0.04 (-105 ± 6) % | Inactive | 4.42 | 
